Data taken from patent publication US5240696A, “Treatment of periodontitis” (Chesebrough-Pond's USA Co., Division of Conopco, Inc., priority 1991, dated 1993).
Like-named read-outs stand apart in the source and are kept apart here.

What was measured:
[1] = target: T1, cyclo-oxygenase (Ovis aries, UniProt P05979); experiment: cyclo-oxygenase assay (oxygen consumption, Clark oxygen electrode); assay type: biochemical, sheep
T1 construct: microsomal enzyme fraction, obtained from a 220,000 x g precipitate of a homogenate of sheep vesicular glands; from tissue; host or cells: sheep vesicular glands (lyophilized microsomal fraction, 220,000 x g precipitate)
T1 sequence (P05979 25-600): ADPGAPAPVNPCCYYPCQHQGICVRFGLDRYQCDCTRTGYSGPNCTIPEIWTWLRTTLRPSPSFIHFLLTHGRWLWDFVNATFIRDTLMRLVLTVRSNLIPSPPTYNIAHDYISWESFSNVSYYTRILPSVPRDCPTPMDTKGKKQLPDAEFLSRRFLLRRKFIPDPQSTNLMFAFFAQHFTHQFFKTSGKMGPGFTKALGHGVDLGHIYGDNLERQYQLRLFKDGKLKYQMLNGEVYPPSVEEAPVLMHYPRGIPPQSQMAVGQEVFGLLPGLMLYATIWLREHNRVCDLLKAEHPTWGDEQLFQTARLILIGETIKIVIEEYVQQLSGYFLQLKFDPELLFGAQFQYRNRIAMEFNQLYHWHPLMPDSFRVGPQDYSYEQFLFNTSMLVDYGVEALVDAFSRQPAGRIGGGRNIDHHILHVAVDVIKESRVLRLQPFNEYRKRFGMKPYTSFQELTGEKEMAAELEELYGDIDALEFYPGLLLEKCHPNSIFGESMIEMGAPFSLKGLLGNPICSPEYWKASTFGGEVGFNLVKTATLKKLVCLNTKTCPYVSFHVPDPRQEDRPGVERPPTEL
Procedure: In vitro experiments were carried out to determine the I50 value of various cyclo-oxygenase inhibitors. […] These experiments were carried out as described in the general method given below, keeping the enzyme and substrate concentrations constant and using increasing inhibitor concentrations. Determinations at each inhibitor concentrations were carried out in duplicate.
The cyclo-oxygenase assay was carried out according to the method described by van der Ouderaa et al., "Methods in Enzymology" 86, page 60-68 (Academic Press Inc., 1982).
0.1M Tris-HCl (pH 8.0) kept at 25° C. and continuously aerated by bubbling air through the solution.
20 mg/ml in toluene kept under nitrogen at -20° C.
0.5 ml of stock solution was taken and the toluene removed under a stream of nitrogen. The substrate was suspended in 10 ml of incubation buffer, freshly prepared each day and kept at room temperature.
500 mg of dry lyophilized microsomal enzyme fraction, obtained from a 220,000 x g precipitate of a homogenate of sheep vesicular glands, was dispersed in 10 ml of incubation buffer for 5 min. using an Ultra Turrax homogeniser. The suspension was kept in ice throughout the experiment and shaken well before each sample was withdrawn.
0.23 mM in distilled water freshly prepared each day and kept on ice.
0.1 mM made up in incubation buffer, freshly prepared each day and kept on ice.
The cyclo-oxygenase activity was measured at 25° C. by monitoring the oxygen consumption as a result of cyclo-oxygenation of the substrate using a Clark oxygen electrode.
A typical experimental run was carried out as follows.
The mixture was then stirred for 5 min. to allow temperature equilibrium and to achieve a steady baseline on the chart recorder monitoring the dissolved oxygen concentration. Substrate solution (100 μl) was quickly injected into the cell to start the reaction and the oxygen consumption was typically monitored for 5 min. following addition of substrate.
The cyclo-oxygenase activity of the sample was calculated from the oxygen consumption curve assuming that maximum deflection of the recorder corresponds to 0.26 mM dissolved oxygen in the buffer and that 2 moles of oxygen are consumed per mole of substrate. The linear part of the sigmoid curve of oxygen consumption was used for initial-rate calculations.
The experiments were standardised by measuring the activity of the enzyme stock solution before and after each set of kinetic experiments and normalizing results to the mean activity.
Triclosan was dissolved in ethanol; AN-10 and APCF3-8 were dissolved in polyethyleneglycol (MW 400) and sodium salicylate was used as an aqueous solution. The concentration of the inhibitor solutions were adjusted so that only 10 μl of the inhibitor solution was added.

[2] = system: Neonatal mouse calvaria; experiment: Bone loss in vitro: calcium release from calvaria stimulated with thrombin; assay type: cell-based
Procedure: (§1) The experimental method used is fully described in Meghi,S et al. Brit. J. Cancer (1988) 58, pp 17-21. Neonatal mouse calvaria were isolated with minimum trauma and maintained in a nutrient medium appropriate for cell culture (DMEM+15% horse serum) at […] in 100% humidity, the medium also containing the materials under test. The pH was maintained in an atmosphere of 5% CO2. After 24 h the medium was discarded, the calvaria were divided into control and test groups, and the medium was replaced with fresh medium containing the materials under test. Prostaglandin E2 (PGE2, 10^-6 M) was added with or without Triclosan as appropriate to stimulate the release of calcium ions (i.e. bone resorption) from the calvaria. After two days further culture in the test media the release of calcium into the medium from the calvaria was determined by atomic absorption spectroscopy. Calcium release is a measure of bone resorption (i.e. degradation of bone) regulated by the specialised cells (osteoblasts and osteoclasts) on the bone surface. Net calcium release was obtained by subtracting the basal medium calcium level.
The test method of Example 2 was repeated, using thrombin, however, as bone loss stimulator, and using indomethacin as a cyclo-oxygenase inhibitor as control.
The procedure of Example 3 was repeated, also using zinc citrate as addition.

[3] = system: Actinobacillus actinomycetemcomitans; experiment: MIC-value of Triclosan for periodontal micro organisms; assay type: cell-based
[4] = system: Neonatal mouse calvaria; experiment: Bone loss in vitro: calcium release from calvaria stimulated with PGE2; assay type: cell-based; conditions: Example 2
Procedure: as §1

[5] = Retention by gingival tissue following topical application; conditions: in vitro and in vivo
[6] = sheep vesicular gland microsomal enzyme, 8,11,14-eicosatrienoic acid substrate, 25° C., pH 8.0, read-out: I50 (concentration of inhibitor which gives 50% inhibition of cyclo-oxygenase activity)

**Q.** With CCCCCCCCCC(=O)c1ccc(O)c(C(=O)Nc2ccc([N+](=O)[O-])cc2)c1 [AN-10, 5-n-decanoyl-4'nitrosalicylanilide] as the molecule, how does the IC50 [1, 6] read?
**A.** 180 µM

**Q.** Which results are given for COc1ccc2c(c1)c(CC(=O)O)c(C)n2C(=O)c1ccc(Cl)cc1 [indomethacin]?
**A.** Net Calcium Release ([2]; Example 3, + thrombin and 10^-6 M indomethacin): 0.4 mg/dL; Net Calcium Release ([2]; Example 4, + thrombin and 10^-6 M indomethacin): 0.0 mg/dL

**Q.** With thrombin as the molecule, how does the “Net Calcium Release” value ([2]; Example 3, + thrombin alone) read?
**A.** 3.9 mg/dL

**Q.** What about the “Net Calcium Release” value ([2]; Example 4, thrombin alone) of the same molecule?
**A.** 2.4 mg/dL

**Q.** With CCCCCCCC(=O)c1ccc(O)c(C(=O)Nc2cccc(C(F)(F)F)c2)c1 [APCF3-8, 5-n-octanoyl-'trifluoromethylphenyl-salicylanilide] as the molecule, how does the IC50 [1, 6] read?
**A.** 240 µM

**Q.** What does the source list for Oc1cc(Cl)ccc1Oc1ccc(Cl)cc1Cl [Triclosan, 2',4,4'-trichloro-2-hydroxy-diphenyl-ether]?
**A.** IC50 [1]: 155 µM; anti-cyclo-oxygenase activity ([1]; in words): considerable anti-cyclo-oxygenase activity; anti-inflammatory potency compared with the preferred substituted salicylamides ([1]; in words, salicylamides of U.S. Pat. No. 4,742,083): much more potent anti-inflammatory agent than the preferred substituted salicylamides; MIC-value [3]: 0.0005%; Net Calcium Release ([4]; + PGE2 (10^-6 M) and 1.10^-5 Triclosan): 1.4 mg/dL; Net Calcium Release ([4]; + PGE2 (10^-6 M) and 2.5.10^-5 M Triclosan): -0.1 mg/dL; Net Calcium Release ([2]; Example 3, + thrombin and 1.10^-5 M Triclosan): 0.2 mg/dL; Net Calcium Release ([2]; Example 3, + thrombin and 5.10^-5 M Triclosan): -0.6 mg/dL; Net Calcium Release ([2]; Example 4, + thrombin and 5.10^-6 M Triclosan): 0.75 mg/dL; retention by gingival tissue [5]: retained by gingival tissue both in vitro and in vivo

**Q.** With O=C([O-])CC(O)(CC(=O)[O-])C(=O)[O-].O=C([O-])CC(O)(CC(=O)[O-])C(=O)[O-].[Zn+2].[Zn+2].[Zn+2] [zinc citrate] as the molecule, how does the “Net Calcium Release” value ([2]; Example 4, + thrombin and 1.10^-4 M zinc citrate) read?
**A.** 1.3 mg/dL

**Q.** What about the “Net Calcium Release” value ([2]; Example 4, + thrombin and 2.10^-4 M zinc citrate) of the same molecule?
**A.** 0.8 mg/dL

**Q.** What about the “Net Calcium Release” value ([2]; Example 4, + thrombin and 5.10^-5 M zinc citrate) of the same molecule?
**A.** 1.4 mg/dL

**Q.** Which “Net Calcium Release” value ([4]; PGE2 10^-6 M alone (positive control), two days culture) does the source give for CCCCC[C@H](O)/C=C/[C@H]1[C@H](O)CC(=O)[C@@H]1C/C=C\CCCC(=O)O [PGE2, Prostaglandin E2] here?
**A.** 3.5 mg/dL
